Inhibition data for 2 compounds are collected here from ChEMBL document CHEMBL5653615 (J Biol Chem, 2013).

Assay [1] addresses T1, Serine/threonine-protein kinase TAO3 (Homo sapiens) (UniProt Q9H2K8).
T1 sequence (whole entry): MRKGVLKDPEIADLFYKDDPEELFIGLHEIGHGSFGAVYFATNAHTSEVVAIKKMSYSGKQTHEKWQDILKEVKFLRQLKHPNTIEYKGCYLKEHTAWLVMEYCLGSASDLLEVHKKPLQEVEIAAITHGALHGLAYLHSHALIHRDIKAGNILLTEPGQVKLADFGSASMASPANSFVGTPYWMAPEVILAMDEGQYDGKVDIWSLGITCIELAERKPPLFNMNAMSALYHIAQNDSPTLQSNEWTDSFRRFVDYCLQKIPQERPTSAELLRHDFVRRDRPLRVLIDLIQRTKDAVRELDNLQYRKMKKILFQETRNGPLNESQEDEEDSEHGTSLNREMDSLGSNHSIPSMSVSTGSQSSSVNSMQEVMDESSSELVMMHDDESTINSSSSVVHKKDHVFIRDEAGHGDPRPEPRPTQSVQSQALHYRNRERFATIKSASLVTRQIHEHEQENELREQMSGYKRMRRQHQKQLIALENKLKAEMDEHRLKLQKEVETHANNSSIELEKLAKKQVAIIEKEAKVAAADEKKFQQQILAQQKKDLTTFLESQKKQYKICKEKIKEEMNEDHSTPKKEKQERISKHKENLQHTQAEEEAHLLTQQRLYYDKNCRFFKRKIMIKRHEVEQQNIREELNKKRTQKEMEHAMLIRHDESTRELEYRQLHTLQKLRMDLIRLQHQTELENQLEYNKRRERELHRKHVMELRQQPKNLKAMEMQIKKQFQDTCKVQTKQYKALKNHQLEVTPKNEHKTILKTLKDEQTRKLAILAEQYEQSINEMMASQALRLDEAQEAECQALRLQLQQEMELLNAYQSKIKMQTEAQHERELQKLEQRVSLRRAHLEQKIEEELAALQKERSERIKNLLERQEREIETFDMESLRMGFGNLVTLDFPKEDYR
The experiment in a line: Inhibition of human JIK at 18.6 nM by HotSpot assay relative to control.

The target in assay [2] is STE20/SPS1-related proline-alanine-rich protein kinase (Homo sapiens) (UniProt Q9UEW8). The experiment in a line: Inhibition of human STLK3 at 1.82 nM by HotSpot assay relative to control.
The target in assay [3] is T2, Serine/threonine-protein kinase D2 (Homo sapiens) (UniProt Q9BZL6).
T2 sequence (whole entry): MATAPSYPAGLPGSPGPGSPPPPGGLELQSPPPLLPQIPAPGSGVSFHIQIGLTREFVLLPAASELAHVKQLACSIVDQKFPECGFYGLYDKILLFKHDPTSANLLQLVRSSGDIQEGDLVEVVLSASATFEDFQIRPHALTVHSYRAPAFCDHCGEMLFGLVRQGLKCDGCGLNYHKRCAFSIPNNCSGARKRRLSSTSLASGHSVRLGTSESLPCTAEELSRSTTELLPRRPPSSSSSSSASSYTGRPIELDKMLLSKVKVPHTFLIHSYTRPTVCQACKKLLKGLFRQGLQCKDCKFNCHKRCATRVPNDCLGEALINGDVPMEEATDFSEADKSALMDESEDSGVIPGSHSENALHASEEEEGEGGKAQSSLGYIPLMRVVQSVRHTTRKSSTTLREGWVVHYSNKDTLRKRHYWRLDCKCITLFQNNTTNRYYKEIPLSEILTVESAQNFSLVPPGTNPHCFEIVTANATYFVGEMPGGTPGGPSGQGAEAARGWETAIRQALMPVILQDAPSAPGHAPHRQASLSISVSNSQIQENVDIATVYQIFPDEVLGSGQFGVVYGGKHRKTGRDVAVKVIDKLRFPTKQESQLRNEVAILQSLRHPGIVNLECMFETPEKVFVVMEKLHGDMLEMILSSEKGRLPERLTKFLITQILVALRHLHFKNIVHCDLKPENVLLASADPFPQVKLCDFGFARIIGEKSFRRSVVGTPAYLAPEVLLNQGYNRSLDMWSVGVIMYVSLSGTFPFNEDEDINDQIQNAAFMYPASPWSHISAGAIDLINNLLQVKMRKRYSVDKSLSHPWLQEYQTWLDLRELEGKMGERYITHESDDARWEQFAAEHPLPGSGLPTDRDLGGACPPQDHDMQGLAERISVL
The experiment in a line: Inhibition of human PRKD2 at 1.82 nM by HotSpot assay relative to control.

Assay [4] has as its target T3, Ephrin type-B receptor 1 (Homo sapiens) (UniProt P54762).
T3 sequence (whole entry): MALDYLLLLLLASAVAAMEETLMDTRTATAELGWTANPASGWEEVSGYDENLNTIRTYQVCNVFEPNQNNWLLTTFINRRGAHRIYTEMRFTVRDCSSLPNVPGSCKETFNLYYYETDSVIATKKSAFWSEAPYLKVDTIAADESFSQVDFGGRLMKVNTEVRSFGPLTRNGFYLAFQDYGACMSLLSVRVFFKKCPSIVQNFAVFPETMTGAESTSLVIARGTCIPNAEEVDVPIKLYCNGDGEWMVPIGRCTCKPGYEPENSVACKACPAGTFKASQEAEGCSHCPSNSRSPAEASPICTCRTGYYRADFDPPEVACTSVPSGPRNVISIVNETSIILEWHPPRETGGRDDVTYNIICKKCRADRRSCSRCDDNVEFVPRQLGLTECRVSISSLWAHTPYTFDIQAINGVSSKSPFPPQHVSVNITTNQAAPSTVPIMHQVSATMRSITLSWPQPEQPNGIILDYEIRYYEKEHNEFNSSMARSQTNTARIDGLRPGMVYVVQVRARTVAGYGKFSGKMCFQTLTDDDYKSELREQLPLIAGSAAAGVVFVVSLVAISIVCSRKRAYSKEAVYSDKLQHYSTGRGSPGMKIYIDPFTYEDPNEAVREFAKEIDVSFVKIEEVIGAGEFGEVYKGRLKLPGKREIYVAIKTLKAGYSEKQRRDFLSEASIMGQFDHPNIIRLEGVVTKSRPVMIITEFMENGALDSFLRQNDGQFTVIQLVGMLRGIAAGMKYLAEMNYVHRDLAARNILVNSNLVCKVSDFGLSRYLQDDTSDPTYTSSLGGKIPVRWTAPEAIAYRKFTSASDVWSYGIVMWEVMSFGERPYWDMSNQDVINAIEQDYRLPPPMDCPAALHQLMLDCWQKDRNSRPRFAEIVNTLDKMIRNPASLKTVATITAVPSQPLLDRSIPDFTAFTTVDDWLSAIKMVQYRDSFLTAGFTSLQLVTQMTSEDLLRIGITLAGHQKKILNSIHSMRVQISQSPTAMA
Kind of assay: Inhibition of human EPHB1 at 1.82 nM by HotSpot assay relative to control.

In general, inhibition refers to the change of the read-out against control, counted positive when it falls. Turning to `C[C@]1(O)C[C@@H](c2nc(-c3ccc4ccc(-c5ccccc5)nc4c3)c3c(N)nccn32)C1`, the inhibition in assay [1] is 4.89%.

Consider `C[C@@]1(C(=O)Nc2ccc(F)nc2)CCCN1c1nc(Nc2cc(C3CC3)n[nH]2)c2cccn2n1`, for which the inhibition in assay [2] was -5.74%; in assay [3], 2.22%; in assay [4] it was 2.28%.
